Assay results published in article PMC4459817, “Vasculotide reduces endothelial permeability and tumor cell extravasation in the absence of binding to or agonistic activation of Tie2” (EMBO Molecular Medicine, 2015).

Test system: residual and metastatic LM2-4luc disease after resection
Assay: orthotopic LM2-4luc xenografts with surgical resection of primary tumor (adjuvant setting)
Format: in vivo, human LM2-4luc cells in CB-17 SCID mice
From the text: A second orthotopic implantation experiment involved surgical resection of primary LM2-4^luc tumors (∽400 mm^3) at 17DPI (Fig6) to model post-operative metastases arising from minimal residual disease (MRD). MRD includes the regrowth of incompletely resected mammary tumors, as well as circulating or disseminated tumor cells released from primary tumors prior to or at the time of surgical resection. VT was initiated 6 days prior to surgery and maintained chronically, while adjuvant SU (1-week or 3-week 60 mg/kg/day) treatments were initiated 1 day post-surgery (Fig6A).
In vivo experiments were performed in strict accordance with protocols approved by the Sunnybrook Research Institute Animal Care Committee, accredited by the Canadian Council of Animal Care. All surgical, imaging, and euthanasia procedures were performed under inhaled isoflurane anesthesia. Experimental metastasis models involved injections of 10^6 tumor cells, suspended in 200 μl serum-free DMEM, into the mouse tail vein. LM2-4^luc implantations were performed on 6 to 8-week-old female CB-17 SCID mice (Charles River Canada). HT29^luc implantations were performed on 19- to 20-week-old male and 11- to 12-week-old female YFP-SCID mice (bred in-house). SN12^luc implantations were performed on 9-week-old male YFP-SCID mice. Spontaneous metastasis models involved orthotopic implantations of 2 × 10^6 LM2-4^luc cells/50 μl serum-free DMEM in the right inguinal mammary fat pads of 6-week-old female CB-17 SCID mice.
Sunitinib malate (SU), from Pfizer or LC Laboratories, and its vehicle were formulated as described before (Ebos et al, [2009]). SU was administered by oral gavage (PO), once daily, at a dose of 60 mg/kg mouse weight. Vasculotide (VT): VT synthesized at the Sunnybrook Research Institute (Toronto, ON, Canada) was used in experiments described in Fig2(A–D) and Supplementary Fig S5(A and B). VT synthesized by American Peptide (Sunnyvale, CA, USA) was used in experiments described in Fig5. VT synthesized by Bachem UK Ltd was used in experiments described in Figs1, 2(E–H), 3, 4, 6–9, Supplementary Figs S2, and S5(C and D). Lyophilized product was reconstituted in PBS to 500 μg/500 μl stock aliquots and stored at −80°C. As needed, stock aliquots were diluted with PBS to a 250 ng/50 μl working concentration and stored in 0.4–1 ml aliquots at −80°C. VT (at a standard dose of 250 ng/mouse) or its vehicle (PBS) was administered to mice by intraperitoneal (IP) injections every other day.
5. Bioluminescence imaging (BI) of tumor burden
For in vivo BI: Mice were injected intraperitoneally with 150mg/kg luciferin (Promega) 10 minutes prior to and anesthetized with isofluorane just before luminescent pseudocolor imaging (uniform settings: CCD camera locked at -105 °C, exposure=60s, f/1, subject size=1.5cm, bin=8, FOV=23.2cm, full image correction) using the IVIS 200 Imaging System (Caliper/PerkinElmer). Using the Living Image software (v2.50.1, Xenogen), weekly images were analyzed under uniform color range on grayscale photographic overlay. Total fluxes (photons/sec) were quantified within consistent regions of interest and statistically compared ideally at a timepoint before any deaths have occurred.
For ex vivo BI: Mice were sacrificed at 7 mins after luciferin injections, then organs of interest were dissected and individually placed within 24-well plates for imaging at 10 min post-luciferin injection.
6. Immunohistochemical (IHC) analysis of lung metastases […]

Compound | thoracic metastases benefit (10 days after discontinuation of 1-week SU, Fig6C) | abdominal tumor growth vs. thoracic metastatic dissemination (adjuvant SU, Fig6C, D) | tumor bioluminescence, VT combined with 1-wk SU (Fig6C and D) | survival advantage (VT monotherapy, Plog-rank = 0.42, Fig6A) | thoracic metastatic dissemination vs. abdominal tumor growth (thoracic P = 0.04, abdominal P > 0.05 for VT, Fig6C, D)
CCN(CC)CCNC(=O)c1c(C)[nH]c(/C=C2\C(=O)Nc3ccc(F)cc32)c1C [sunitinib, reference compound] | no benefit was observed with respect to thoracic metastases | more effective at inhibiting abdominal tumor growth (Fig6D) than thoracic metastatic dissemination | – | – | –
CHHHRHSF [Vasculotide, 4-armed maleimide-functionalized polyethylene glycol (PEG) backbone to link together four cysteine-capped T7 peptides, that is, CHHHRHSF] | – | – | lowered tumor bioluminescence to a similar extent as 3-wk SU monotherapy | not statistically significant | more effective at inhibiting thoracic metastatic dissemination (Fig6C, P = 0.04) than abdominal tumor growth (Fig6D, P > 0.05)
